Measured values published in ChEMBL document CHEMBL1136650, “Glycine alpha-ketoamides as HCV NS3 protease inhibitors” (Bioorg Med Chem Lett, 2003).
Numbered stars: 1 amine (or outer) side, 2 acyl side, 3 side chain; on linkers, the order of the positions; unused ones are H or OH. Square brackets hold non-standard residues; d marks the D form. Peptide text beside a SMILES is read from it. * marks the point of attachment. Abu(ψCOCO) = CC[C@H](N[*:1])C(=O)C(=O)[*:2]; X1 = O=C(C(=O)[*:2])[C@H](CC(F)F)N[*:1]; Pyrazinecarbonyl = O=C(c1cnccn1)*; X2 = CC(C)(N[*:1])C(=O)C(=O)[*:2]; X3 = O=C(C(=O)[*:2])C1(N[*:1])CC1; Cha = N[C@@H](CC1CCCCC1)C(=O)O; Aib = CC(C)(N)C(=O)O; NHAllyl = C=CCN*; Sar = CNCC(=O)O

Molecular target: Genome polyprotein (Hepatitis C virus genotype 1a (isolate 1) (HCV), UniProt P26664)
Test: Inhibitory concentration against HCV NS3 protease was determined

Chain of Genome polyprotein (P26664 1027-1657 limits assumed): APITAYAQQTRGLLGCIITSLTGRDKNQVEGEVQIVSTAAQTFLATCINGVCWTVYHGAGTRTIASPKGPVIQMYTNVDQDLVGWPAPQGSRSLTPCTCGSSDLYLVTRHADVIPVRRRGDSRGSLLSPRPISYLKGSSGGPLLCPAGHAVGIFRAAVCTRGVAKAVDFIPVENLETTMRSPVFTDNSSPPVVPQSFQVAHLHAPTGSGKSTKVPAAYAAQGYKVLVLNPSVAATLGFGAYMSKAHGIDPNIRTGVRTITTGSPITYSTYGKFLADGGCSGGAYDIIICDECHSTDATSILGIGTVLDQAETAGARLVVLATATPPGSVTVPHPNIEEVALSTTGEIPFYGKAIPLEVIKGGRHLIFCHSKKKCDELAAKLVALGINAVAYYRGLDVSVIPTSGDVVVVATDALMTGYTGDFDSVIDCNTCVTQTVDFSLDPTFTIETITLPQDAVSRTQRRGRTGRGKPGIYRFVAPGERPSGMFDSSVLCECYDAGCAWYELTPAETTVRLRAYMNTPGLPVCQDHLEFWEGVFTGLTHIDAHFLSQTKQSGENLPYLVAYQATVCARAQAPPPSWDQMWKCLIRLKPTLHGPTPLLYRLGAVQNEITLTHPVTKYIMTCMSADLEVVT

Row | Structure (SMILES) | IC50
1 | C=CCNC(=O)C(=O)[C@H](CC)NC(=O)[C@@H]1CCCN1C(=O)[C@@H](NC(=O)[C@@H](NC(=O)[C@H](CCC(=O)O)NC(=O)[C@@H](N)CC(=O)O)C(C)C)C(C)C (H-DEVVP[Abu(ψCOCO)]-NHAllyl) | 0.42 µM
2 | CC[C@H](C)[C@H](NC(=O)[C@H](CC(C)C)NC(=O)c1cnccn1)C(=O)N[C@@H](CC1CCCCC1)C(=O)NC(C)(C)C(=O)C(=O)NCC(=O)O (Pyrazinecarbonyl-LI[Cha][X2]G-OH) | > 60 µM
3 | CC[C@H](NC(=O)[C@H](CC1CCCCC1)NC(=O)[C@@H](NC(=O)[C@H](CC(C)C)NC(=O)c1cnccn1)[C@@H](C)CC)C(=O)C(=O)NCC(=O)O (Pyrazinecarbonyl-LI[Cha][Abu(ψCOCO)]G-OH) | 0.23 µM
4 | CCNC(=O)C(=O)[C@H](CC)NC(=O)[C@H](CC1CCCCC1)NC(=O)[C@@H](NC(=O)[C@H](CC(C)C)NC(=O)c1cnccn1)[C@@H](C)CC | 1.8 µM
5 | CC[C@H](C)[C@H](NC(=O)[C@H](CC(C)C)NC(=O)c1cnccn1)C(=O)N[C@@H](CC1CCCCC1)C(=O)NC1(C(=O)C(=O)NCC(=O)O)CC1 (Pyrazinecarbonyl-LI[Cha][X3]G-OH) | > 60 µM
6 | CC[C@H](NC(=O)[C@H](CC1CCCCC1)NC(=O)[C@@H](NC(=O)[C@H](CC(C)C)NC(=O)c1cnccn1)[C@@H](C)CC)C(=O)C(=O)N[C@H](C)C(=O)O | > 60 µM
7 | CC[C@H](NC(=O)[C@H](CC1CCCCC1)NC(=O)[C@@H](NC(=O)[C@H](CC(C)C)NC(=O)c1cnccn1)[C@@H](C)CC)C(=O)C(=O)NC1CC1 | 2.2 µM
8 | CC[C@H](NC(=O)[C@H](CC1CCCCC1)NC(=O)[C@@H](NC(=O)[C@H](CC(C)C)NC(=O)c1cnccn1)[C@@H](C)CC)C(=O)C(=O)N1CCCC1 | 42 µM
9 | C#CCNC(=O)C(=O)[C@H](CC)NC(=O)[C@H](CC1CCCCC1)NC(=O)[C@@H](NC(=O)[C@H](CC(C)C)NC(=O)c1cnccn1)[C@@H](C)CC | 1.6 µM
10 | CC[C@H](NC(=O)[C@H](CC1CCCCC1)NC(=O)[C@@H](NC(=O)[C@H](CC(C)C)NC(=O)c1cnccn1)[C@@H](C)CC)C(=O)C(=O)NC(C)(C)C(=O)O (Pyrazinecarbonyl-LI[Cha][Abu(ψCOCO)][Aib]-OH) | > 60 µM
11 | C=CCNC(=O)C(=O)[C@H](CC)NC(=O)[C@H](CC1CCCCC1)NC(=O)[C@@H](NC(=O)[C@H](CC(C)C)NC(=O)c1cnccn1)[C@@H](C)CC | 2.7 µM
12 | CC[C@H](NC(=O)[C@H](CC1CCCCC1)NC(=O)[C@@H](NC(=O)[C@H](CC(C)C)NC(=O)c1cnccn1)[C@@H](C)CC)C(=O)C(=O)N[C@@H](CC(=O)O)C(=O)O (Pyrazinecarbonyl-LI[Cha][Abu(ψCOCO)]D-OH) | 5.3 µM
13 | CC[C@H](NC(=O)[C@H](CC1CCCCC1)NC(=O)[C@@H](NC(=O)[C@H](CC(C)C)NC(=O)c1cnccn1)[C@@H](C)CC)C(=O)C(=O)N[C@@H](CCCCN)C(=O)O (Pyrazinecarbonyl-LI[Cha][Abu(ψCOCO)]K-OH) | 7.7 µM
14 | CC[C@H](NC(=O)[C@H](CC1CCCCC1)NC(=O)[C@@H](NC(=O)[C@H](CC(C)C)NC(=O)c1cnccn1)[C@@H](C)CC)C(=O)C(=O)NCC(N)=O (Pyrazinecarbonyl-LI[Cha][Abu(ψCOCO)]G-NH2) | 4.3 µM
15 | CC[C@H](NC(=O)[C@H](CC1CCCCC1)NC(=O)[C@@H](NC(=O)[C@H](CC(C)C)NC(=O)c1cnccn1)[C@@H](C)CC)C(=O)C(=O)N(C)CC(=O)O (Pyrazinecarbonyl-LI[Cha][Abu(ψCOCO)][Sar]-OH) | > 60 µM
16 | CC[C@H](NC(=O)[C@H](CC1CCCCC1)NC(=O)[C@@H](NC(=O)[C@H](CC(C)C)NC(=O)c1cnccn1)[C@@H](C)CC)C(=O)C(=O)N[C@@H](C)C(=O)O | 1.3 µM
17 | CC[C@H](NC(=O)[C@H](CC1CCCCC1)NC(=O)[C@@H](NC(=O)[C@H](CC(C)C)NC(=O)c1cnccn1)[C@@H](C)CC)C(=O)C(=O)N1CCOCC1 | > 60 µM
18 | CC[C@H](NC(=O)[C@H](CC1CCCCC1)NC(=O)[C@@H](NC(=O)[C@H](CC(C)C)NC(=O)c1cnccn1)[C@@H](C)CC)C(=O)C(=O)NCC(=O)OC (Pyrazinecarbonyl-LI[Cha][Abu(ψCOCO)]G-OMe) | 5.8 µM
19 | CC[C@H](NC(=O)[C@H](CC1CCCCC1)NC(=O)[C@@H](NC(=O)[C@H](CC(C)C)NC(=O)c1cnccn1)[C@@H](C)CC)C(=O)C(=O)NCCC(=O)O | 12 µM
20 | CC[C@H](NC(=O)[C@H](CC1CCCCC1)NC(=O)[C@@H](NC(=O)[C@H](CC(C)C)NC(=O)c1cnccn1)[C@@H](C)CC)C(=O)C(=O)NCc1ccccc1 | 11 µM
21 | CC[C@H](NC(=O)[C@H](CC1CCCCC1)NC(=O)[C@@H](NC(=O)[C@H](CC(C)C)NC(=O)c1cnccn1)[C@@H](C)CC)C(=O)C(=O)N[C@H](C(=O)O)C(C)C (Pyrazinecarbonyl-LI[Cha][Abu(ψCOCO)]V-OH) | 3.6 µM
22 | CC[C@H](C)[C@H](NC(=O)[C@H](CC(C)C)NC(=O)c1cnccn1)C(=O)N[C@@H](CC1CCCCC1)C(=O)N[C@@H](CC(F)F)C(=O)C(=O)NCC(=O)O (Pyrazinecarbonyl-LI[Cha][X1]G-OH) | 0.06 µM
